Results as given in ChEMBL document CHEMBL5724914, “Linking interpersonal differences in gut microbiota composition and drug biotransformation activity” (2024).

Columns and labels:
[1] = The drug is tested on Z-028 corresponding to mouse gut metagenome with ENA study accession number: PRJEB37062 and ENA sample accession number: ERS12561827 for biotransformation under anaerobic condition. The drug concentrations were measured over 9 timepoints collected between 0 and 24 hours of incubation by liquid-chromatography-coupled mass spectrometry (LC–MS); details: 2 µM
[2] = The drug is tested on Z-026 corresponding to metagenome with ENA study accession number: PRJEB37062 and ENA sample accession number: ERS12561825 for biotransformation under anaerobic condition. The drug concentrations were measured over 9 timepoints collected between 0 and 24 hours of incubation by liquid-chromatography-coupled mass spectrometry (LC–MS); details: 2 µM
[3] = The drug is tested on Z-019 corresponding to rat gut metagenome with ENA study accession number: PRJEB37062 and ENA sample accession number: ERS12561818 for biotransformation under anaerobic condition. The drug concentrations were measured over 9 timepoints collected between 0 and 24 hours of incubation by liquid-chromatography-coupled mass spectrometry (LC–MS); details: 2 µM
[4] = The drug is tested on Z-018 corresponding to pig gut metagenome with ENA study accession number: PRJEB37062 and ENA sample accession number: ERS12561817 for biotransformation under anaerobic condition. The drug concentrations were measured over 9 timepoints collected between 0 and 24 hours of incubation by liquid-chromatography-coupled mass spectrometry (LC–MS); details: 2 µM
[5] = The drug is tested on Z-017 corresponding to mouse gut metagenome with ENA study accession number: PRJEB37062 and ENA sample accession number: ERS12561816 for biotransformation under anaerobic condition. The drug concentrations were measured over 9 timepoints collected between 0 and 24 hours of incubation by liquid-chromatography-coupled mass spectrometry (LC–MS); details: 2 µM
[6] = The drug is tested on Z-014 corresponding to rat gut metagenome with ENA study accession number: PRJEB37062 and ENA sample accession number: ERS12561814 for biotransformation under anaerobic condition. The drug concentrations were measured over 9 timepoints collected between 0 and 24 hours of incubation by liquid-chromatography-coupled mass spectrometry (LC–MS); details: 2 µM
[7] = The drug is tested on Z-008 corresponding to metagenome with ENA study accession number: PRJEB37062 and ENA sample accession number: ERS12561808 for biotransformation under anaerobic condition. The drug concentrations were measured over 9 timepoints collected between 0 and 24 hours of incubation by liquid-chromatography-coupled mass spectrometry (LC–MS); details: 2 µM
[8] = The drug is tested on Z-003 corresponding to pig gut metagenome with ENA study accession number: PRJEB37062 and ENA sample accession number: ERS12561803 for biotransformation under anaerobic condition. The drug concentrations were measured over 9 timepoints collected between 0 and 24 hours of incubation by liquid-chromatography-coupled mass spectrometry (LC–MS); details: 2 µM
[9] = The drug is tested on Z-002 corresponding to rabbit gut metagenome with ENA study accession number: PRJEB37062 and ENA sample accession number: ERS12561802 for biotransformation under anaerobic condition. The drug concentrations were measured over 9 timepoints collected between 0 and 24 hours of incubation by liquid-chromatography-coupled mass spectrometry (LC–MS); details: 2 µM
[10] = The drug is tested on WLS-220 corresponding to human gut metagenome with ENA study accession number: PRJEB37062 and ENA sample accession number: ERS12561769 for biotransformation under anaerobic condition. The drug concentrations were measured over 9 timepoints collected between 0 and 24 hours of incubation by liquid-chromatography-coupled mass spectrometry (LC–MS); details: 2 µM
[11] = The drug is tested on WLS-086 corresponding to human gut metagenome with ENA study accession number: PRJEB37062 and ENA sample accession number: ERS12561752 for biotransformation under anaerobic condition. The drug concentrations were measured over 9 timepoints collected between 0 and 24 hours of incubation by liquid-chromatography-coupled mass spectrometry (LC–MS); details: 2 µM
[12] = The drug is tested on WLS-006 corresponding to human gut metagenome with ENA study accession number: PRJEB37062 and ENA sample accession number: ERS12561741 for biotransformation under anaerobic condition. The drug concentrations were measured over 9 timepoints collected between 0 and 24 hours of incubation by liquid-chromatography-coupled mass spectrometry (LC–MS); details: 2 µM
[13] = human gut metagenome, 24 h, 2 µM
[14] = human gut metagenome, 24 h, 2 µM; remark: listed apart in the source
[15] = human gut metagenome, 24 h, 2 µM; remark: listed apart in the source
[16] = human gut metagenome, 24 h, 2 µM; remark: listed apart in the source
[17] = human gut metagenome, 24 h, 2 µM; remark: listed apart in the source
[18] = human gut metagenome, 24 h, 2 µM; remark: listed apart in the source
[19] = human gut metagenome, 24 h, 2 µM; remark: listed apart in the source
[20] = human gut metagenome, 24 h, 2 µM; remark: listed apart in the source
Also: call rule not given here.

CCOC(=O)[C@H](CCc1ccccc1)N[C@@H](C)C(=O)N1[C@H](C(=O)O)C[C@@H]2CCC[C@@H]21
Bacterial Biotransformation [1]: Compound NOT metabolized
Bacterial Biotransformation [2]: Compound NOT metabolized
Bacterial Biotransformation [3]: Compound NOT metabolized
Bacterial Biotransformation [4]: Compound metabolized
Bacterial Biotransformation [5]: Compound NOT metabolized
Bacterial Biotransformation [6]: Compound NOT metabolized
Bacterial Biotransformation [7]: Compound NOT metabolized
Bacterial Biotransformation [8]: Compound metabolized
Bacterial Biotransformation [9]: Compound metabolized
Bacterial Biotransformation [10]: Compound metabolized
Bacterial Biotransformation [11]: Compound metabolized
Bacterial Biotransformation [12]: Compound metabolized
Bacterial Biotransformation [13]: Compound metabolized
Bacterial Biotransformation [14]: Compound metabolized
Bacterial Biotransformation [15]: Compound metabolized
Bacterial Biotransformation [16]: Compound metabolized
Bacterial Biotransformation [17]: Compound metabolized
Bacterial Biotransformation [18]: Compound metabolized
Bacterial Biotransformation [19]: Compound metabolized
Bacterial Biotransformation [20]: Compound metabolized

CCN(CC)CCNC(C(=O)OCCC(C)C)c1ccccc1.Cl.Cl (stereo not drawn)
Bacterial Biotransformation [1]: Compound NOT metabolized
Bacterial Biotransformation [2]: Compound NOT metabolized
Bacterial Biotransformation [3]: Compound NOT metabolized
Bacterial Biotransformation [4]: Compound metabolized
Bacterial Biotransformation [5]: Compound NOT metabolized
Bacterial Biotransformation [6]: Compound NOT metabolized
Bacterial Biotransformation [7]: Compound NOT metabolized
Bacterial Biotransformation [8]: Compound metabolized
Bacterial Biotransformation [9]: Compound metabolized
Bacterial Biotransformation [10]: Compound NOT metabolized
Bacterial Biotransformation [11]: Compound metabolized
Bacterial Biotransformation [12]: Compound metabolized
Bacterial Biotransformation [13]: Compound metabolized
Bacterial Biotransformation [14]: Compound metabolized
Bacterial Biotransformation [15]: Compound NOT metabolized
Bacterial Biotransformation [16]: Compound metabolized
Bacterial Biotransformation [17]: Compound metabolized
Bacterial Biotransformation [18]: Compound metabolized
Bacterial Biotransformation [19]: Compound metabolized
Bacterial Biotransformation [20]: Compound metabolized

CCCC(=O)Nc1ccc(OCC(O)CNC(C)C)c(C(C)=O)c1 (stereo not drawn) [ACEBUTOLOL]
Bacterial Biotransformation [1]: Compound NOT metabolized
Bacterial Biotransformation [2]: Compound NOT metabolized
Bacterial Biotransformation [3]: Compound NOT metabolized
Bacterial Biotransformation [4]: Compound NOT metabolized
Bacterial Biotransformation [5]: Compound NOT metabolized
Bacterial Biotransformation [6]: Compound NOT metabolized
Bacterial Biotransformation [7]: Compound NOT metabolized
Bacterial Biotransformation [8]: Compound metabolized
Bacterial Biotransformation [9]: Compound metabolized
Bacterial Biotransformation [10]: Compound NOT metabolized
Bacterial Biotransformation [11]: Compound metabolized
Bacterial Biotransformation [12]: Compound NOT metabolized
Bacterial Biotransformation [13]: Compound metabolized
Bacterial Biotransformation [14]: Compound metabolized
Bacterial Biotransformation [15]: Compound NOT metabolized
Bacterial Biotransformation [16]: Compound metabolized
Bacterial Biotransformation [17]: Compound metabolized
Bacterial Biotransformation [18]: Compound NOT metabolized
Bacterial Biotransformation [19]: Compound metabolized
Bacterial Biotransformation [20]: Compound metabolized

C=CCc1ccccc1OCC(O)CNC(C)C (stereo not drawn) [ALPRENOLOL]
Bacterial Biotransformation [1]: Compound NOT metabolized
Bacterial Biotransformation [2]: Compound metabolized
Bacterial Biotransformation [3]: Compound NOT metabolized
Bacterial Biotransformation [4]: Compound NOT metabolized
Bacterial Biotransformation [5]: Compound NOT metabolized
Bacterial Biotransformation [6]: Compound NOT metabolized
Bacterial Biotransformation [7]: Compound NOT metabolized
Bacterial Biotransformation [8]: Compound metabolized
Bacterial Biotransformation [9]: Compound metabolized
Bacterial Biotransformation [10]: Compound metabolized
Bacterial Biotransformation [11]: Compound metabolized
Bacterial Biotransformation [12]: Compound NOT metabolized
Bacterial Biotransformation [13]: Compound NOT metabolized
Bacterial Biotransformation [14]: Compound metabolized
Bacterial Biotransformation [15]: Compound NOT metabolized
Bacterial Biotransformation [16]: Compound NOT metabolized
Bacterial Biotransformation [17]: Compound NOT metabolized
Bacterial Biotransformation [18]: Compound NOT metabolized
Bacterial Biotransformation [19]: Compound metabolized
Bacterial Biotransformation [20]: Compound metabolized

CC(C)c1c(C(=O)Nc2ccccc2)c(-c2ccccc2)c(-c2ccc(F)cc2)n1CC[C@@H](O)C[C@@H](O)CC(=O)O [ATORVASTATIN]
Bacterial Biotransformation [1]: Compound NOT metabolized
Bacterial Biotransformation [2]: Compound NOT metabolized
Bacterial Biotransformation [3]: Compound NOT metabolized
Bacterial Biotransformation [4]: Compound NOT metabolized
Bacterial Biotransformation [5]: Compound NOT metabolized
Bacterial Biotransformation [6]: Compound NOT metabolized
Bacterial Biotransformation [7]: Compound NOT metabolized
Bacterial Biotransformation [8]: Compound metabolized
Bacterial Biotransformation [9]: Compound metabolized
Bacterial Biotransformation [10]: Compound NOT metabolized
Bacterial Biotransformation [11]: Compound metabolized
Bacterial Biotransformation [12]: Compound metabolized
Bacterial Biotransformation [13]: Compound metabolized
Bacterial Biotransformation [14]: Compound NOT metabolized
Bacterial Biotransformation [15]: Compound metabolized
Bacterial Biotransformation [16]: Compound metabolized
Bacterial Biotransformation [17]: Compound NOT metabolized
Bacterial Biotransformation [18]: Compound metabolized
Bacterial Biotransformation [19]: Compound metabolized
Bacterial Biotransformation [20]: Compound metabolized

COc1c2occc2cc2ccc(=O)oc12 [METHOXSALEN]
Bacterial Biotransformation [1]: Compound metabolized
Bacterial Biotransformation [2]: Compound metabolized
Bacterial Biotransformation [3]: Compound NOT metabolized
Bacterial Biotransformation [4]: Compound metabolized
Bacterial Biotransformation [5]: Compound metabolized
Bacterial Biotransformation [6]: Compound NOT metabolized
Bacterial Biotransformation [7]: Compound metabolized
Bacterial Biotransformation [8]: Compound metabolized
Bacterial Biotransformation [9]: Compound metabolized
Bacterial Biotransformation [10]: Compound metabolized
Bacterial Biotransformation [11]: Compound metabolized
Bacterial Biotransformation [12]: Compound metabolized
Bacterial Biotransformation [13]: Compound metabolized
Bacterial Biotransformation [15]: Compound metabolized
Bacterial Biotransformation [16]: Compound metabolized
Bacterial Biotransformation [17]: Compound metabolized
Bacterial Biotransformation [18]: Compound metabolized
Bacterial Biotransformation [19]: Compound metabolized
